{"source": "paper PMC10046095", "about": "(2023)", "key": {"[1]": {"test_system": "a-TC40 (DNA, aptamer) GTTTGTGTATTACAGTTATGTTACCCTCATTTTTCTGAAC", "assay": "equilibrium filtration, HPLC", "settings": "100 mM NaCl, 5 mM KCl, 2 mM MgCl2, 1 mM CaCl2; 20 mM Tris/HCl pH 7.6 (binding buffer listed for TC); filter leakage 0.53"}, "[2]": {"test_system": "a-TC76 (DNA, aptamer) CGTACGGAATTCGCTAGCCCCCCGGCAGGCCACGGCTTGGGTTGGTCCCACTGCGCGTGGATCCGAGCTCCACGTG", "assay": "equilibrium filtration, HPLC", "settings": "100 mM NaCl, 5 mM KCl, 2 mM MgCl2, 1 mM CaCl2; 20 mM Tris/HCl pH 7.6 (binding buffer listed for TC)"}, "[3]": {"test_system": "a-TCmu (biotinylated, on DynaSA) (RNA, aptamer) GGGCCUAAAACAUACCAGAUCGCCACCCGCGCUUUAAUCUGGAGAGGUGAAGAAUACGACCACCUAGGCUC", "assay": "bead capture, HPLC", "settings": "room temperature, 1 h; eluted with 2 M NaCl and 80 °C"}, "[4]": {"test_system": "a-TCmu (RNA, aptamer) GGGCCUAAAACAUACCAGAUCGCCACCCGCGCUUUAAUCUGGAGAGGUGAAGAAUACGACCACCUAGGCUC", "assay": "fluorescence titration (intrinsic tetracycline fluorescence)", "settings": "100 mM NaCl, 10 mM MgCl2; 20 mM potassium phosphate pH 7.5, 25 °C; fluorescence yield up about 12 times"}, "[5]": {"test_system": "a-TC8 (amino, on DynaEpoxy) (DNA, aptamer) CGGTGGTG", "assay": "bead capture, HPLC", "settings": "room temperature, 1 h; capture significantly higher than nonsense aptamer"}, "[6]": {"test_system": "a-TC40 (amino, on DynaEpoxy) (DNA, aptamer) GTTTGTGTATTACAGTTATGTTACCCTCATTTTTCTGAAC", "assay": "bead capture, HPLC", "settings": "room temperature, 1 h; capture significantly higher than nonsense aptamer"}, "[7]": {"test_system": "a-TCmu (RNA, aptamer) GGGCCUAAAACAUACCAGAUCGCCACCCGCGCUUUAAUCUGGAGAGGUGAAGAAUACGACCACCUAGGCUC", "assay": "equilibrium filtration, HPLC", "settings": "Na+ 100 mM; Mg2+ 10 mM; K+ (20 mM potassium phosphate buffer); 20 mM potassium phosphate pH 7.5 (presumed)"}, "[8]": {"test_system": "a-SDM (DNA, aptamer) GAGGGCAACGAGTGTTTATAGA", "assay": "equilibrium filtration (3 kD filter), HPLC", "settings": "50 mM NaCl, 5 mM KCl, 5 mM MgCl2; 20 mM Tris/HCl pH 8 (BBSDM)"}, "[9]": {"test_system": "a-SMZ (DNA, aptamer) TTAGCTTATGCGTTGGCCGGGATAAGGATCCAGCCGTTGTAGATTTGCGTTCTAACTCTC", "assay": "equilibrium filtration, HPLC", "settings": "100 mM NaCl, 5 mM KCl, 2 mM MgCl2, 1 mM CaCl2; 20 mM Tris/HCl pH 7.6 (binding buffer listed for SMZ); highest aptamer 2.5 µM"}, "[10]": {"test_system": "a-SMZ-b (on DynaSA) (DNA, aptamer) TTAGCTTATGCGTTGGCCGGGATAAGGATCCAGCCGTTGTAGATTTGCGTTCTAACTCTC", "assay": "bead capture, HPLC", "settings": "room temperature, 1 h; around 2% captured, no elution, data not shown"}}, "data": [{"smiles": "CN(C)[C@@H]1C(=O)C(C(N)=O)=C(O)[C@@]2(O)C(=O)C3=C(O)c4c(O)cccc4[C@@](C)(O)[C@H]3C[C@@H]12", "values": [{"measurement": "k", "setting": "[1]", "result": 100, "unit": "nM"}, {"measurement": "k", "setting": "[2]", "result": 14, "unit": "µM"}, {"measurement": "binding", "setting": "[3]", "result": "yes"}, {"measurement": "k", "setting": "[4]", "result": "~ 60 nM"}, {"measurement": "binding", "setting": "[5]", "result": "yes"}, {"measurement": "binding", "setting": "[6]", "result": "yes"}, {"measurement": "k", "setting": "[7]", "result": 64, "unit": "nM"}]}, {"smiles": "COc1cc(NS(=O)(=O)c2ccc(N)cc2)nc(OC)n1", "values": [{"measurement": "binding", "setting": "[8]", "result": "no"}]}, {"smiles": "Cc1cc(C)nc(NS(=O)(=O)c2ccc(N)cc2)n1", "values": [{"measurement": "k", "setting": "[9]", "result": "> 2.5", "unit": "µM"}, {"measurement": "binding", "setting": "[10]", "result": "weak"}]}]}
